The values that follow come from US20100144733A1, “Compounds, compositions and methods comprising heteroaromatic derivatives” (Institute for OneWorld Health, priority 2008, published 2010).

Like-named read-outs stand apart in the source and are kept apart here.

One assay deals with T1, CHO-CFTR cell line (Homo sapiens, UniProt P13569).
T1 construct: expressed in transfected cells; host or cells: CHO (CHO-CFTR cell line)
The assay is described as follows: CHO-CFTR assay (FLIPR assay, same conditions as the T84 assay). The settings on record: imidazole and triazole-containing compounds. The format is cell-based.

In a further assay the target is T2, CFTR (Homo sapiens, UniProt P13569).
T2 construct: endogenous in cells; host or cells: T84 human colonic cells (ECACC)
T2 sequence (P13569 whole entry): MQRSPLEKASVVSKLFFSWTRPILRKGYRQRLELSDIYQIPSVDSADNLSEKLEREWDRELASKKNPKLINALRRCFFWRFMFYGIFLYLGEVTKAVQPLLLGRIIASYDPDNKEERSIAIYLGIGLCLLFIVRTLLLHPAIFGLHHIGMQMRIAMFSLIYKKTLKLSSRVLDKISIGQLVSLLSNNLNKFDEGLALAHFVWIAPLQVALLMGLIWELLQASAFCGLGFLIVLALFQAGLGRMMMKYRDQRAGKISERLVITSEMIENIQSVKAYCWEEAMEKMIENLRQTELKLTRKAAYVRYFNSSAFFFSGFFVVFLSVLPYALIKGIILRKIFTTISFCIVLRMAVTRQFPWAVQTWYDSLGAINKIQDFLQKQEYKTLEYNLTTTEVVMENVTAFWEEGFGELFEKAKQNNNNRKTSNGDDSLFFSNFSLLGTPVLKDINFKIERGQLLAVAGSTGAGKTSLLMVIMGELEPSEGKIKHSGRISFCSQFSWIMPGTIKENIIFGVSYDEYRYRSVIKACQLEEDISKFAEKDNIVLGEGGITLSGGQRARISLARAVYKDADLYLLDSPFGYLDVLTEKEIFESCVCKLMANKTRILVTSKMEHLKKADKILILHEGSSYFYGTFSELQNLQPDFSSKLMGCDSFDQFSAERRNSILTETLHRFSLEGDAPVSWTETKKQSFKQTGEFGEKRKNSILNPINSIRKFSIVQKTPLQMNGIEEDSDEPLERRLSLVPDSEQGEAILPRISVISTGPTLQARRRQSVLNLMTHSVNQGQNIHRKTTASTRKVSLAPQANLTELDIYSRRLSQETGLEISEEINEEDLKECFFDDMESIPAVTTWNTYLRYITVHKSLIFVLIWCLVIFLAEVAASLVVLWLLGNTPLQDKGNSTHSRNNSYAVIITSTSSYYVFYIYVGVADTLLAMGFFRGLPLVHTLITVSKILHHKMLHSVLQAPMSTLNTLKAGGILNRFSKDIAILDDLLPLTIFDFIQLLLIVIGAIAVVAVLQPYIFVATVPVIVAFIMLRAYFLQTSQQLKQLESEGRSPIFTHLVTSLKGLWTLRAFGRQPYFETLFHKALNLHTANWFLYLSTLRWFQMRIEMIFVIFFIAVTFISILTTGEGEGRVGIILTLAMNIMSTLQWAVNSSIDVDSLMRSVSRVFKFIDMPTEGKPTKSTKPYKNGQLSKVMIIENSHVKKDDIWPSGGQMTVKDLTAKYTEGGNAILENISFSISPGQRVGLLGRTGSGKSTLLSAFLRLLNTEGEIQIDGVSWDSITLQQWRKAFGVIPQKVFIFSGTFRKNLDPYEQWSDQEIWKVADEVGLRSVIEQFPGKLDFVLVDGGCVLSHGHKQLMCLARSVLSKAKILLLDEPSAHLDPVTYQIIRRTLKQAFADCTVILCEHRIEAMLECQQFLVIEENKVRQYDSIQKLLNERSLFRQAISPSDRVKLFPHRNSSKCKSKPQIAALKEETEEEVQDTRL
The assay is described as follows: T84 assay (FLIPR membrane potential dye, forskolin/IBMX-stimulated CFTR channel activity). It counts as cell-based. An outline of the steps: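 Fluorescence from a membrane potential dye in T84 monolayers (HBSS with 10 mM Hepes) is followed each second for 150 s. Cells are exposed to test compound during the 45 min dye loading, then challenged with forskolin (10 μM) and IBMX (100 μM) to open CFTR. Inhibitors suppress the depolarization-driven fluorescence increase.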

The mark [1] stands for this setting: imidazole and triazole-containing compounds (Tables 13, 14, 14′), read-out: IC50 (μM) (T84 assay).
The mark [2] stands for this setting: oxadiazole-containing compounds (a series), average of at least 2 runs unless annotated n = 1, read-out: IC50.

T1 sequence (P13569 whole entry): as above

Regarding `CCN(Cc1ccc(Oc2ccccc2)cc1)C(=O)c1ncn(-c2cc(Cl)c(O)c(Cl)c2)n1` [86i, 1-(3,5-dichloro-4-hydroxyphenyl)-N-ethyl-N-(4-phenoxybenzyl)-1H-1,2,4-triazole-3-carboxamide], the results for the IC50 against CHO-CFTR cell line and at CFTR (setting [1]) were 28.9 µM and 1.81 µM, respectively. For `O=C(c1ncn(-c2cc(Cl)c(O)c(Cl)c2)n1)N(Cc1cccnc1)Cc1cccc(C(F)(F)F)c1` [94i, 1-(3,5-dichloro-4-hydroxyphenyl)-N-(pyridin-3-ylmethyl)-N-(3-(trifluoromethyl)benzyl)-1H-1,2,4-triazole-3-carboxamide] the same measures were 21.1 µM and 6.95 µM. Taken in the same sequence, the figures for `O=C(c1ncn(-c2cc(Cl)c(O)c(Cl)c2)n1)N(Cc1ccc(Oc2ccccc2)cc1)Cc1cccnc1` [91i, 1-(3,5-dichloro-4-hydroxyphenyl)-N-(4-phenoxybenzyl)-N-(pyridin-3-ylmethyl)-1H-1,2,4-triazole-3-carboxamide] were 20.6 µM and 2.89 µM.

Consider `CCN(Cc1cccc(C(F)(F)F)c1)C(=O)c1ncn(-c2cc(Cl)c(O)c(Cl)c2)n1` [90i, 1-(3,5-dichloro-4-hydroxyphenyl)-N-ethyl-N-(3-(trifluoromethyl)benzyl)-1H-1,2,4-triazole-3-carboxamide], for which the IC50 (commonly the concentration that inhibits the measured activity by half) at CHO-CFTR cell line came out at 15.9 µM; at CFTR (setting [1]), 5.98 µM. For `Oc1c(Cl)cc(-n2cnc(C(O)(Cc3ccccc3F)Cc3ccccc3F)n2)cc1Cl` [59i, 4-(3-(1,3-bis(2-fluorophenyl)-2-hydroxypropan-2-yl)-1H-1,2,4-triazol-1-yl)-2,6-dichlorophenol] the same measures were 5.45 µM and 21.1 µM. For `Oc1c(Cl)cc(-n2cnc(C(O)(c3cccc(Cl)c3)c3cccc(Cl)c3)n2)cc1Cl` [53i, 4-(3-(bis(3-chlorophenyl)(hydroxy)methyl)-1H-1,2,4-triazol-1-yl)-2,6-dichlorophenol] the same measures were 4.27 µM and 13 µM. Taken in the same sequence, the figures for `O=C(NC(c1ccccc1)c1ccc(Cl)cc1)c1ncn(-c2cc(Cl)c(O)c(Cl)c2)n1` (stereo not drawn) [33i, N-((4-chlorophenyl)(phenyl)methyl)-1-(3,5-dichloro-4-hydroxyphenyl)-1H-1,2,4-triazole-3-carboxamide] were 4.8 µM and 3.66 µM. In the case of `O=C(NCCC(c1ccccc1)c1ccccc1)c1ncn(-c2cc(Cl)c(O)c(Cl)c2)n1` [31i, 1-(3,5-dichloro-4-hydroxyphenyl)-N-(3,3-diphenylpropyl)-1H-1,2,4-triazole-3-carboxamide], the IC50 at CHO-CFTR cell line came to 12.9 µM; on CFTR (setting [1]), 1.67 µM. For `O=C(c1ncn(-c2cc(Cl)c(O)c(Cl)c2)n1)N(Cc1cccnc1)Cc1ccc(Cl)c(Cl)c1` [109i, 1-(3,5-dichloro-4-hydroxyphenyl)-N-(3,4-dichlorobenzyl)-N-(pyridin-3-ylmethyl)-1H-1,2,4-triazole-3-carboxamide] the same measures were 10.2 µM and 3.06 µM. Taken in the same sequence, the figures for `O=C(c1ncn(-c2cc(Cl)c(O)c(Cl)c2)n1)N1CCN(c2cccc(C(F)(F)F)c2)CC1` [4i, (1-(3,5-dichloro-4-hydroxyphenyl)-1H-1,2,4-triazol-3-yl)(4(3-(trifluoromethyl)phenyl)piperazin-1-yl)methanone] were 14.3 µM and 8.15 µM. For `CC(C)(C)CCN(Cc1ccc(C(C)(C)C)cc1)C(=O)c1ncn(-c2cc(Cl)c(O)c(Cl)c2)n1` [106i, N-(4-tert-butylbenzyl)-1-(3,5-dichloro-4-hydroxyphenyl)-N-(3,3-dimethylbutyl)-1H-1,2,4-triazole-3-carboxamide] the same measures were 13.1 µM and 1.8 µM.

Turning to `O=C(NCc1ccc(Oc2ccc(F)c(C(F)(F)F)c2)cc1)c1ncn(-c2cc(Cl)c(O)c(Cl)c2)n1` [67i, 1-(3,5-dichloro-4-hydroxyphenyl)-N-(4-(4-fluoro-3-(trifluoromethyl)phenoxy)benzyl)-1H-1,2,4-triazole-3-carboxamide], the IC50 at CHO-CFTR cell line came to 14.7 µM; on CFTR (setting [1]), 6.4 µM. Taken in the same sequence, the figures for `CC(C)N(Cc1ccc(C(C)(C)C)cc1)C(=O)c1ncn(-c2cc(Cl)c(O)c(Cl)c2)n1` [97i] were 35.5 µM and 1.23 µM.

As for `CC(C)(C)c1ccc(CNC(=O)c2ncn(-c3cc(Cl)c(O)c(Cl)c3)n2)cc1` [34i, N-(4-tert-butylbenzyl)-1-(3,5-dichloro-4-hydroxyphenyl)-1H-1,2,4-triazole-3-carboxamide], the IC50 was found to be 4.72 µM on CHO-CFTR cell line and 1.18 µM at CFTR (setting [1]).

With `CC(C)c1ccc(CN(Cc2ccccc2)C(=O)c2ncn(-c3cc(Cl)c(O)c(Cl)c3)n2)cc1` [81i, N-benzyl-1-(3,5-dichloro-4-hydroxyphenyl)-N-(4-isopropylbenzyl)-1H-1,2,4-triazole-3-carboxamide], the IC50 came to 16.5 µM against CHO-CFTR cell line and 1.26 µM at CFTR (setting [1]). For `C=CCN(Cc1ccc(Oc2ccccc2)cc1)C(=O)c1ncn(-c2cc(Cl)c(O)c(Cl)c2)n1` [100i, N-allyl-1-(3,5-dichloro-4-hydroxyphenyl)-N-(4-phenoxybenzyl)-1H-1,2,4-triazole-3-carboxamide] the same measures were 9.09 µM and 1.85 µM.

With `CC(C)N(Cc1ccc(Cl)c(Cl)c1)C(=O)c1ncn(-c2cc(Cl)c(O)c(Cl)c2)n1` [98i, 1-(3,5-dichloro-4-hydroxyphenyl)-N-(3,4-dichlorobenzyl)-N-isopropyl-1H-1,2,4-triazole-3-carboxamide], the values for the IC50 against CHO-CFTR cell line and at CFTR (setting [1]) were 8.39 µM and 8.13 µM, respectively. For `CON(Cc1ccc(Oc2ccccc2)cc1)C(=O)c1ncn(-c2cc(Cl)c(O)c(Cl)c2)n1` [129i, 1-(3,5-dichloro-4-hydroxyphenyl)-N-methoxy-N-(4-phenoxybenzyl)-1H-1,2,4-triazole-3-carboxamide] the same measures were 22.5 µM and 2.61 µM. Taken in the same sequence, the figures for `O=C(NC(c1ccccc1)c1ccccc1)c1ncn(-c2cc(Cl)c(O)c(Cl)c2)n1` [2i, N-benzhydryl-1-(3,5-dichloro-4-hydroxyphenyl)-1H-1,2,4-triazole-3-carboxamide] were 6.45 µM and 4.88 µM. Regarding `C=CCN(Cc1ccc(Cl)c(Cl)c1)C(=O)c1ncn(-c2cc(Cl)c(O)c(Cl)c2)n1` [102i, N-allyl-1-(3,5-dichloro-4-hydroxyphenyl)-N-(3,4-dichlorobenzyl)-1H-1,2,4-triazole-3-carboxamide], the figures for the IC50 against CHO-CFTR cell line and at CFTR (setting [1]) were 2.69 µM and 1.85 µM, respectively. Molecule `O=C(NCc1ccc(Oc2cc(C(F)(F)F)cc(C(F)(F)F)c2)cc1)c1ncn(-c2cc(Cl)c(O)c(Cl)c2)n1` [62i, N-(4-(3,5-bis(trifluoromethyl)phenoxy)benzyl)-1-(3,5-dichloro-4-hydroxyphenyl)-1H-1,2,4-triazole-3-carboxamide] yielded an IC50 at CHO-CFTR cell line of 8.76 µM.

As for `CN(C)c1cccc(Oc2ccc(CNC(=O)c3ncn(-c4cc(Cl)c(O)c(Cl)c4)n3)cc2)c1` [64i, 1-(3,5-dichloro-4-hydroxyphenyl)-N-(4-(3-(dimethylamino)phenoxy)benzyl)-1H-1,2,4-triazole-3-carboxamide], the IC50 on CHO-CFTR cell line was 4.81 µM. As for `CCOCCN(Cc1cccc(C(F)(F)F)c1)C(=O)c1nc(-c2cc(Cl)c(O)c(Cl)c2)no1` [110a, 3-(3,5-dichloro-4-hydroxyphenyl)-N-(2-ethoxyethyl)-N-(3-(trifluoromethyl)benzyl)-1,2,4-oxadiazole-5-carboxamide], at CFTR (setting [2]), the IC50 is 3.76 µM.

In the case of `CC(C)Oc1ccc(CNC(=O)c2nc(-c3cc(Cl)c(O)c(Cl)c3)no2)cc1` [127a, 3-(3,5-dichloro-4-hydroxyphenyl)-N-(4-isopropoxybenzyl)-1,2,4-oxadiazole-5-carboxamide], at CFTR (setting [2]), the IC50 is 9.95 µM. With `O=C(c1ncn(-c2cc(Cl)c(O)c(Cl)c2)n1)N1CCC(Cc2ccccc2)CC1` [5i, (4-benzylpiperidin-1-yl)(1-(3,5-dichloro-4-hydroxyphenyl)-1H-1,2,4-triazol-3-yl)methanone], the IC50 at CFTR (setting [1]) was determined as 15.9 µM. As to `CC(NC(=O)c1nc(-c2cc(Cl)c(O)c(Cl)c2)no1)c1ccc(Br)cc1` (stereo not drawn) [143a, N-(1-(4-bromophenyl)ethyl)-3-(3,5-dichloro-4-hydroxyphenyl)-1,2,4-oxadiazole-5-carboxamide], on CFTR (setting [2]), the IC50 turned out to be 5.15 µM. Same read-out and setting: for `CN(Cc1ccc(Oc2ccccn2)cc1)C(=O)c1nc(-c2cc(Cl)c(O)c(Cl)c2)no1` [173a, 3-(3,5-dichloro-4-hydroxyphenyl)-N-methyl-N-(4-(pyridin-2-yloxy)benzyl)-1,2,4-oxadiazole-5-carboxamide] the value was 12.4 µM; for `O=C(NCc1ccc(F)cc1F)c1nc(-c2cc(Cl)c(O)c(Cl)c2)no1` [132a, 3-(3,5-dichloro-4-hydroxyphenyl)-N-(2,4-difluorobenzyl)-1,2,4-oxadiazole-5-carboxamide], 16.1 µM. `O=C(NCc1ccc(F)c(C(F)(F)F)c1)c1ncn(-c2cc(Cl)c(O)c(Cl)c2)n1` [29i, 1-(3,5-dichloro-4-hydroxyphenyl)-N-(4-fluoro-3-(trifluoromethyl)benzyl)-1H-1,2,4-triazole-3-carboxamide]: the IC50 at CFTR (setting [1]) amounted to 7.52 µM. Regarding `O=C(NCc1cc(F)cc(C(F)(F)F)c1)c1nc(-c2cc(Cl)c(O)c(Cl)c2)no1` [154a, 3-(3,5-dichloro-4-hydroxyphenyl)-N-(3-fluoro-5-(trifluoromethyl)benzyl)-1,2,4-oxadiazole-5-carboxamide], the IC50 on CFTR (setting [2]) stood at 3.89 µM. Consider `CN(Cc1cccc(-c2ncccn2)c1)C(=O)c1nc(-c2cc(Cl)c(O)c(Cl)c2)no1` [176a, 3-(3,5-dichloro-4-hydroxyphenyl)-N-methyl-N-(3-(pyrimidin-2-yl)benzyl)-1,2,4-oxadiazole-5-carboxamide], for which the IC50 on CFTR (setting [2]) is 24.6 µM.
